Laboratory results reported in article PMC10606064, “2-Aminothiazole-Flavonoid Hybrid Derivatives Binding to Tau Protein and Responsible for Antitumor Activity in Glioblastoma” (International Journal of Molecular Sciences, 2023).

Legend:
U87 shTau cells [1] = test: MTT cell viability assay, U87 shTau (Tau-depleted); type: cell-based; conditions: Homo sapiens, 72 h, mean ± SEM, read-out: IC50 (metabolic activity)
Description: All cell lines were purchased from ATCC, Gaithersburg, MD, USA. Cells from human glioblastoma (clones U87 wt, HTB-14; U118, HTB-15; U251, HTB-12; U138, HTB-16), neuroblastoma (clone SK-N-SH, HTB-11), and colorectal adenocarcinoma (clone Caco-2, HTB-37) were routinely grown at 37 °C in a humidified atmosphere containing 5% CO2. Cells were maintained by regular passages in complete media supplemented with 10% FBS, 2mM of L-glutamine, 100 U/mL of penicillin, and 50 U/mL of streptomycin (Invitrogen, Paris, France). For U87 wt, U251, U138, and SK-N-SH cells, the medium consisted of EMEM (Lonza, Levallois Perret, France). U118 and Caco-2 lines were maintained in DMEM. The U87 wt-derived lines, U87 shCTRL, and U87 shTau2 cells were continuously maintained in complete EMEM medium supplemented with 0.4 µg/mL of puromycin. The shRNA sequences and the protocol of clone selection and Tau downregulation were previously described in [20]. For Tau expression rescue, the U87 shCTRL and U87 shTau cells were seeded two days prior to experiments at 4.10^5 cells per 60 mm dish in 6 mL of complete medium. Cells were transfected using LipofectAmine 2000 according to Invitrogen instructions and 8 µg EGFP-free plasmid constructs (for U87 shCTRL) and EGFP-hTau40 plasmid constructs (for U87 shTau) were used in total. One day prior to experiments, all cells were plated in a 96-well microtiter plate to prepare for viability assays. Cells were free from mycoplasma as determined by mycoalert tests (Lonza).
Cells harvested from sub-confluent monolayers were seeded at 15,000 cells per mL in a 96-well microtiter plate (Cambridge Technology, Labège, France) and cultured for 24 h under standard conditions. Standard medium was then replaced by fresh medium containing no drugs or compounds at different concentrations. The surviving cells were quantified after 72 h by the MTT assay, according to the manufacturer’s instructions. Briefly, 20 µL of 3-(4,5-diMethylThiazol-2-yl)-2,5diphenyl Tetrazolium bromide (MTT) solution at 5 mg.mL^−1 was added to cells for 3 h at 37 °C. The supernatant was discarded and replaced by 100 µL of dimethyl sulfoxide to dissolve formazan crystals. The absorbance was then read at 600 nm by spectrophotometry. For all concentrations of a given compound, cell viability was expressed as the percentage of the ratio between the mean absorbance of treated cells and the mean absorbance of untreated cells. Three independent experiments were performed, and the data were expressed as percentage of survival (using the untreated cells as 100%) and subjected to statistical analysis (n = 3). The IC50 was calculated using the Chou and Talalay method.

U87 shTau cells [2] = test: Cell cycle by flow cytometry (propidium iodide), U87 shTau; type: cell-based, human; conditions: 48 h
Description: Measurements of cell cycle from DNA content were performed by flow cytometry as described before. Briefly, 4.10^5 cells in exponential growth were seeded in 6-well plates. After 24 h, they were treated with 10 µM of compounds for 48 h. Nocodazole was used as a positive control with a concentration of 1 µM. The trypsinized cells were harvested and then centrifuged (1200 rpm, 5 min, at room temperature). The cell pellet was resuspended in 1 mL of PBS 1× at 4 °C, and then an extra 4 mL of cold PBS was added to wash the pellet. Cells were then centrifuged again (1200 rpm, 5 min, at 4 °C). To fixate the cells, the pellet was resuspended in 100 µL of cold 70% ethanol, then an additional 900 µL was added and cells were incubated for 30 min at −20 °C. After that, 9 mL of cold PBS was added, and cells were centrifuged (2000 rpm, 5 min, at 4 °C) to remove ethanol. The cell pellet was then resuspended in the staining mix containing 50 µg.mL^−1 of propidium iodide (Molecular Probes, Paris, France) and 100 µg.mL^−1 of RNAse A (Sigma-Aldrich, Saint-Quentin-Fallavier, France) in PBS for 20 min at room temperature in darkness. Samples were analyzed on a Beckman–Coulter–Gallios flow cytometer using the Kaluza for Gallios Acquisition v1.0 software. Propidium iodide was excited at 488 nm, and fluorescence was analyzed at 620 nm on channel FL-3. For the analysis, there is considerable overlap between early S phase and G1 and between late S phase and G2/M due to broadening of the distribution caused by variability in the staining of the cells and instrumental variability. Therefore, the percentages of cells in the sub-G1, G1, S, and G2/M phases of the cell cycle were calculated using the Watson et al. algorithm for cell cycle analysis in Kaluza for Gallios Analysis v2.1 software. The software automatically adjusted gates based on PI median fluorescence intensity of the cells and their frequency among total cells. The number of cells in each phase was divided by the total number of analyzed cells, and the values were reported as percentage of the total cells for each cell cycle phase.

## Nc1nc2ccc3oc(C(=O)O)cc(=O)c3c2s1 [Compound 5]
U87 shTau cells [1]
  IC50: > 100 µM
U87 shTau cells [2]; compounds 10 µM, NOC 1 µM
  %G1 (cells in G1 phase): 62 ± 5%
  %G2/M (cells in G2/M phase): 25 ± 1%

## Nc1nc2ccc3oc(-c4cccc(Oc5ccccc5)c4)cc(=O)c3c2s1 [Compound 2, 2-amino-7-(3-phenoxyphenyl)-9H-chromeno [6,5-d]thiazol-9-one]
U87 shTau cells [1]
  IC50: 4.7 ± 0.3 µM
U87 shTau cells [2]; 10 µM
  effect on cell cycle progression: no significant effect on cell cycle progression
